In patent publication US20260345568A1, “INHIBITING MONOACYLGLYCEROL LIPASE (MAGL)” (PSY THERAPEUTICS, INC., priority 2023, published 2026) one finds IC50 data, which are given here for 13 molecules.

Structures are written as SMILES. Bounds are passed on as bounds.

The experiment deals with T1, human MAGL (Homo sapiens, UniProt Q99685).
T1 construct: recombinant MAGL enzyme (aa 2-303 RBC, internal preparation)
T1 sequence (Q99685 2-303): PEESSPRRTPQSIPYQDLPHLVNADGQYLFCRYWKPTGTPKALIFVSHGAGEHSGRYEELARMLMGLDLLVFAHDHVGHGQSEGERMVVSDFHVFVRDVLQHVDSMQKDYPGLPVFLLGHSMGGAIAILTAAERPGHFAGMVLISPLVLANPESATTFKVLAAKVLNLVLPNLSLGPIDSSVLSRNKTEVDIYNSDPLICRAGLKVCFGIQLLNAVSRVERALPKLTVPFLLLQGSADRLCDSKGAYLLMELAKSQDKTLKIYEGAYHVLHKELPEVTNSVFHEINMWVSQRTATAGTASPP
The experiment can be described thus: MAGL inhibition potency, 4-nitrophenyl acetate (4NPA) hydrolysis, absorbance 405 nm (Example A). Type of experiment: biochemical. The settings on record: Method 12: Reaction Biology MAGL enzyme, 15 nM; 4NPA substrate; read-out: MAGL Potency (Detection Method). The source says:
The potency of certain compounds for inhibiting MAGL were obtained using the following assays.
The monoacylglycerol lipase inhibitor screening assay kit from Cayman Chemical was used to measure the MAGL potency for the compounds in Tables A-1, A-2, A-3.
Cayman's Monoacylglycerol Lipase Inhibitor Screening Assay provides a method for screening human MAGL inhibitors. MAGL hydrolyzes 4-nitrophenylacetate resulting in a yellow product, 4-nitrophenol, with an absorbance of 405-412 nm.
MAGL Inhibition was measured by the following assay. Monoacylglycerol Lipase (MAGL) inhibition was measured using recombinant MAGL enzyme (aa 2-303 RBC, internal preparation) and the substrate 4-Nitrophenyl acetate (4NPA) (Sigma-Aldrich, N8130). Hydrolysis of the substrate in the presence of the enzyme was measured by absorbance at 405 nm. 10 μL of assay buffer (10 mM Tris pH 7.5, 1 mM EDTA, 0.9% DMSO) was added to a black 384-well non-binding plate with clear bottom (Greiner, 781906) for each reaction. Compounds were dispensed using an acoustic liquid handler (Echo, Beckman) at 45 nL (0.1% DMSO). Test compounds and control for MAGL inhibitor JZL-184 (Caymen Chemical, 13158) were tested in 10-concentration IC50 mode with 3-fold serial dilution at a starting concentration of […]. DMSO control wells were included for reference. A 10.8 nM (1.8×) MAGL mix in assay buffer was prepared, with 25 μL added to each reaction well, for a final assay concentration of […]. No enzyme wells received 25 μL of buffer. Plate was incubated at room temperature for 30 minutes. 35 mM solution of 4NPA in methanol was prepared daily A 4.5×4NPA substrate solution was prepared in assay buffer and 10 μL was added to each reaction well, for a final assay concentration of 0.25 mM. Plate was spun for 1 minute at 1000 rpm before measuring absorbance using a CLARIOstar plate reader (BMG Labtech). A kinetic reading at 405 nm was done every minute for 30 minutes. Data was analyzed using the linear slope of the reaction progress curve and the average of the no-enzyme wells (background) was subtracted from the data. The background-subtracted slope data was converted to % activity using the average of wells with enzyme and DMSO vehicle. IC50s were calculated using GraphPad software (Sigmoidal dose response, variable slope equation).
Table 8 provides potency measurements of MAGL inhibition measured using the Potency Assay of Example A above, with the following modifications described in Table C.
The number after each letter for potency measurement value indicates the Method from Table C that was used to obtain that measurement value (e.g. “A(1)” indicates an IC50 measurement of <50 nM obtained from the Method 1 of Example A in Table C).
As for `O=C(c1cc(O)ccc1F)N1CC2(CC(n3ncc(C(F)(F)F)c3-c3cccnc3)C2)C1` [Compound 1, (2-fluoro-5-hydroxyphenyl){6-[5-(3-pyridyl)-4-(trifluoromethyl)-1-pyrazolyl]-2-aza-2-spiro[3.3]heptyl}methanone], the IC50 lay within 150 to 500 nM. The same measure for `O=C(c1cc(O)ccc1F)N1CC2(CC(n3cc(C(F)(F)F)c(-c4cccnc4)n3)C2)C1` [Compound 2, (2-fluoro-5-hydroxyphenyl){6-[3-(3-pyridyl)-4-(trifluoromethyl)-1-pyrazolyl]-2-aza-2-spiro[3.3]heptyl}methanone]: less than 50 nM; for `O=C(c1cc(O)ccc1F)N1CC2(CC(n3nc(C(F)(F)F)cc3-c3cccnc3)C2)C1` [Compound 3, (2-fluoro-5-hydroxyphenyl){6-[5-(3-pyridyl)-3-(trifluoromethyl)-1-pyrazolyl]-2-aza-2-spiro[3.3]heptyl}methanone]: 50 to 150 nM. On to `O=C(c1cc(O)ccc1F)N1CC2(CC(n3nc(-c4cccnc4)cc3C(F)(F)F)C2)C1` [Compound 4, (2-fluoro-5-hydroxyphenyl){6-[3-(3-pyridyl)-5-(trifluoromethyl)-1-pyrazolyl]-2-aza-2-spiro[3.3]heptyl}methanone], for which the IC50 was less than 50 nM. As for `O=C(c1cc(O)ccc1F)N1CC2(CC(n3nc(-c4ccccn4)cc3C(F)(F)F)C2)C1` [Compound 6, (2-fluoro-5-hydroxyphenyl){6-[3-(2-pyridyl)-5-(trifluoromethyl)-1-pyrazolyl]-2-aza-2-spiro[3.3]heptyl}methanone], the IC50 was 150 to 500 nM.

Consider `O=C(c1cc(O)ccc1F)N1CC2(CC(n3nc(C(F)(F)F)cc3-c3ccncc3)C2)C1` [Compound 7, (2-fluoro-5-hydroxyphenyl){6-[5-(4-pyridyl)-3-(trifluoromethyl)-1-pyrazolyl]-2-aza-2-spiro[3.3]heptyl}methanone], for which the IC50 was 150 to 500 nM. Next, `O=C(c1cc(O)ccc1F)N1CC2(CC(n3nc(-c4ccncc4)cc3C(F)(F)F)C2)C1` [Compound 8, (2-fluoro-5-hydroxyphenyl){6-[3-(4-pyridyl)-5-(trifluoromethyl)-1-pyrazolyl]-2-aza-2-spiro[3.3]heptyl}methanone]: less than 50 nM; `O=C(c1cc(O)ccc1F)N1CC2(CC(n3nc(C(F)(F)F)cc3-c3ccc(=O)[nH]c3)C2)C1` [Compound 9, 5-(1-(2-(2-fluoro-5-hydroxybenzoyl)-2-azaspiro [3.3]heptan-6-yl)-3-(trifluoromethyl)-1H-pyrazol-5-yl) pyridin-2(1H)-one]: 150 to 500 nM. Turning to `O=C(c1cc(O)ccc1F)N1CC2(CC(n3nc(C(F)(F)F)cc3-c3ccc[nH]c3=O)C2)C1` [Compound 11, 3-(1-(2-(2-fluoro-5-hydroxybenzoyl)-2-azaspiro [3.3]heptan-6-yl)-3-(trifluoromethyl)-1H-pyrazol-5-yl) pyridin-2(1H)-one], the IC50 lay within 150 to 500 nM.

Regarding `O=C(c1cc(O)ccc1F)N1CC2(CC(n3nc(C(F)(F)F)cc3-c3cncc(F)c3)C2)C1` [Compound 13], the IC50 lay within 150 to 500 nM. Next, `O=C(c1cc(O)ccc1F)N1CC2(CC(n3nc(-c4cncc(F)c4)cc3C(F)(F)F)C2)C1` [Compound 14, (2-fluoro-5-hydroxyphenyl){6-[3-(5-fluoro-3-pyridyl)-5-(trifluoromethyl)-1-pyrazolyl]-2-aza-2-spiro[3.3]heptyl}methanone]: 50 to 150 nM; `COc1ncccc1-c1cc(C(F)(F)F)nn1C1CC2(C1)CN(C(=O)c1cc(O)ccc1F)C2` [Compound 16]: 50 to 150 nM. The same measure for `COc1ccc(-c2cc(C(F)(F)F)nn2C2CC3(C2)CN(C(=O)c2cc(O)ccc2F)C3)cn1` [Compound 18, (2-fluoro-5-hydroxyphenyl) (6-(5-(6-methoxypyridin-3-yl)-3-(trifluoromethyl)-1H-pyrazol-1-yl)-2-azaspiro [3.3]heptan-2-yl) methanone]: 150 to 500 nM.
